Key:
Experiment in all cases: relative viability (nuclei count vs DMSO), 5 days (fraction); higher = more cells survive
[1] = compound: C1=CC=C(C(=C1)C2=CC=C(C=C2)C3=CSC4=C3C(=C(C(=O)N4)C#N)O)O + COc1cccc2cc(-c3nc([C@H]4CC[C@H](C(=O)O)CC4)n4ncnc(N)c34)[nH]c12 [OSI-027] (partner 0.5 µM)
Procedure, shortened: (§1)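 Cells from lung cancer lines were seeded into 1536-well plates and, one day later, dosed by pin tool. Treatments were either a single drug or a fixed dose of an anchor drug with five library-drug doses (not always all listed) in √10 steps. After 5 days, nuclei were stained in a one-step fixation (final 0.05% Triton X-100, 1% formaldehyde, 1 ug/ml Hoechst) and counted on 4× images, and relative viability is the treated-to-vehicle nuclei ratio, as the median of duplicate plates.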

[2] = compound: C1=CC=C(C(=C1)C2=CC=C(C=C2)C3=CSC4=C3C(=C(C(=O)N4)C#N)O)O + Nc1ncn([C@H]2C[C@H](O)[C@@H](CO)O2)c(=O)n1 [Decitabine] (partner 2 µM)
Procedure, shortened: as §1

TGX 221 + AZD7762 = compound: CC1=CN2C(=O)C=C(N=C2C(=C1)C(C)NC3=CC=CC=C3)N4CCOCC4 [TGX 221] + NC(=O)Nc1cc(-c2cccc(F)c2)sc1C(=O)N[C@H]1CCCNC1 [AZD7762] (partner 0.2 µM)
Procedure, shortened: as §1

TGX 221 + Navitoclax = compound: CC1=CN2C(=O)C=C(N=C2C(=C1)C(C)NC3=CC=CC=C3)N4CCOCC4 [TGX 221] + CC1(C)CCC(c2ccc(Cl)cc2)=C(CN2CCN(c3ccc(C(=O)NS(=O)(=O)c4ccc(N[C@H](CCN5CCOCC5)CSc5ccccc5)c(S(=O)(=O)C(F)(F)F)c4)cc3)CC2)C1 [Navitoclax] (partner 0.5 µM)
Procedure, shortened: as §1

Row | Cell Line | relative viability ([1]; first compound 0.08 µM) | relative viability ([1]; first compound 0.253 µM) | relative viability ([1]; first compound 0.8 µM) | relative viability ([1]; first compound 2.53 µM) | relative viability ([1]; first compound 8 µM) | relative viability ([2]; first compound 0.08 µM) | relative viability ([2]; first compound 0.253 µM) | relative viability ([2]; first compound 0.8 µM) | relative viability ([2]; first compound 2.53 µM) | relative viability ([2]; first compound 8 µM) | relative viability (TGX 221 + AZD7762; first compound 0.08 µM) | relative viability (TGX 221 + AZD7762; first compound 0.253 µM) | relative viability (TGX 221 + AZD7762; first compound 0.8 µM) | relative viability (TGX 221 + AZD7762; first compound 2.53 µM) | relative viability (TGX 221 + AZD7762; first compound 8 µM) | relative viability (TGX 221 + Navitoclax; first compound 0.08 µM) | relative viability (TGX 221 + Navitoclax; first compound 0.253 µM) | relative viability (TGX 221 + Navitoclax; first compound 0.8 µM) | relative viability (TGX 221 + Navitoclax; first compound 2.53 µM) | relative viability (TGX 221 + Navitoclax; first compound 8 µM)
1 | NCI-H1755 | 0.762 | 0.848 | 0.616 | 0.686 | 0.751 | 0.736 | 0.723 | 0.722 | 0.749 | 0.731 | 0.338 | 0.391 | 0.399 | 0.409 | 0.371 | 0.948 | 0.949 | 0.891 | 0.606 | 0.444
2 | NCI-H838 | 0.379 | 0.394 | 0.388 | 0.342 | 0.354 | 0.456 | 0.5 | 0.483 | 0.457 | 0.417 | 0.892 | 0.911 | 0.877 | 0.77 | 0.849 | 1.08 | 0.977 | 1.05 | 0.888 | 0.779
3 | NCI-H322M | 0.59 | 0.489 | 0.502 | 0.576 | 0.514 | 0.679 | 0.667 | 0.747 | 0.69 | 0.731 | 0.578 | 0.569 | 0.636 | 0.571 | 0.546 | 1.13 | 1.19 | 1.14 | 0.911 | 1.33
4 | NCI-H441 | 0.647 | 0.669 | 0.565 | 0.822 | 0.646 | 0.28 | 0.3 | 0.286 | 0.242 | 0.233 | 1.22 | 1.12 | 0.925 | 1.07 | 1.24 | 0.494 | 0.529 | 0.599 | 0.998 | 0.797
5 | EMC-BAC-2 | 0.41 | 0.411 | 0.312 | 0.355 | 0.357 | 0.893 | – | 0.979 | 0.967 | 0.933 | 1.06 | 1.05 | 1.13 | 1.07 | 0.992 | 1.16 | 1.1 | 1.13 | 1.11 | 1.05
6 | HARA | 0.386 | 0.661 | 0.524 | 0.428 | 0.297 | 0.592 | 0.769 | 0.596 | 0.548 | 0.459 | 0.464 | 0.38 | 0.513 | 0.519 | 0.274 | 1.18 | 1.13 | 1.03 | 1.13 | 1.11
7 | NCI-H727 | 0.474 | 0.671 | 0.668 | 0.519 | 0.52 | 0.815 | 0.932 | 0.79 | 0.843 | 0.81 | 0.492 | 0.688 | 0.695 | 0.592 | 0.546 | 0.383 | 0.317 | 0.491 | 0.332 | 0.365
8 | NCI-H1944 | 0.39 | 0.436 | 0.336 | 0.367 | 0.4 | 0.454 | 0.44 | 0.39 | 0.468 | 0.465 | – | 0.501 | 0.453 | 0.513 | 0.455 | 0.981 | 1.02 | 1 | 0.943 | 0.841
9 | 201T | 0.709 | 0.665 | 0.795 | 0.699 | 0.531 | 0.844 | 0.826 | 0.875 | 0.894 | 0.916 | 0.55 | 0.685 | 0.611 | 0.615 | 0.569 | – | 1.26 | 1.21 | 1.19 | 1.15
10 | NCI-H460 | 0.36 | 0.755 | 0.377 | 0.868 | 0.462 | 0.387 | 0.437 | 0.531 | 0.5 | 0.398 | 0.564 | 0.632 | 0.559 | 0.665 | 0.655 | 1.04 | 1.02 | 1.24 | 1.19 | 1.07
11 | LOU-NH91 | 0.765 | 0.721 | 0.71 | 0.727 | 0.69 | 0.854 | 0.865 | 0.824 | 0.781 | 0.782 | 0.73 | 0.758 | 0.746 | 0.789 | 0.714 | 0.705 | 0.647 | 0.707 | 0.681 | 0.544
12 | NCI-H2170 | 0.76 | 0.74 | 0.676 | 0.677 | 0.754 | 0.551 | 0.467 | 0.467 | 0.454 | 0.446 | 0.81 | 0.825 | 0.861 | 0.871 | 0.917 | 0.572 | 0.64 | 0.594 | 0.541 | 0.51
13 | LU99A | 0.3 | 0.263 | 0.27 | 0.345 | 0.301 | 0.894 | 0.523 | 0.961 | 0.777 | 1.02 | 0.263 | 0.387 | 0.391 | 0.402 | 0.305 | 0.647 | 0.756 | 0.824 | 0.799 | 0.811
14 | ChaGo-K-1 | 0.475 | 0.569 | 0.485 | 0.571 | 0.528 | 0.507 | 0.58 | 0.587 | 0.535 | 0.506 | 0.922 | 0.826 | 0.873 | 0.827 | 0.838 | 0.957 | 1.02 | 0.987 | 0.737 | 1.36
15 | LK-2 | – | 0.161 | 0.178 | 0.218 | 0.203 | 0.178 | 0.228 | 0.236 | 0.343 | 0.314 | 0.377 | 0.434 | 0.436 | 0.395 | 0.521 | 0.98 | 0.84 | 0.81 | 0.996 | 0.948
16 | NCI-H596 | 0.55 | 0.722 | 0.692 | 0.732 | 0.553 | 1.02 | 1.79 | 1.09 | 0.898 | 0.891 | 1.05 | 0.904 | 1.11 | 0.942 | 1.03 | 0.996 | 0.863 | 0.969 | 0.902 | 0.886

Source: the supplement of paper PMC10307832
